Results on 1 compound are retold here after patent US11596615B2, “Compositions and methods for treatment of insulin resistance” (Temple University—Of The Commonwealth System Of Higher …, priority 2016, dated 2023).

Each structure is given as a SMILES string. Structures can show the parent of a compound that is named as a salt. Where two headings read alike, the source gives them in different places. Bounds are passed on as bounds.

Series [1] is described as follows: Body weight of diet-induced (HFD) obese mice over two weeks. Particulars: 10 mg/kg/day. It counts as in vivo. The procedure:
The body weights of diet-induced (HFD) mice with and without (S)-2-amino-6-((3-aminopropyl)amino)hexanoic acid dihydrochloride (10 mg/kg/day) were measured over 14 days.
In contrast, poglitazone is known to cause water retention and weight gain.

The test system of series [2] is db/db mice. As to the kind of experiment: Glucose tolerance test in leptin receptor knock-out (db/db) mice. It counts as in vivo. The procedure: Leptin receptor knock-out (db/db) mice have severe, rapid, spontaneous and early-onset obesity and insulin resistance that is first recognizable at 4 weeks of age. These animals (5 for each group) were used to determine the effect of (S)-2-amino-6-((3-aminopropyl)amino)hexanoic acid dihydrochloride on impaired glucose tolerance at pre-diabetes level. The groups consisted of (i) db/db mice administered 50 mg/kg b.i.d. p.o. (S)-2-amino-6-((3-aminopropyl)amino)hexanoic acid dihydrochloride; (ii) db/db vehicle control-treated mice; and (iii) heterozygous littermate control mice. The treatment period was for 7 days. Glucose tolerance tests were performed as described above.
To determine the effect of (S)-2-amino-6-((3-aminopropyl)amino)hexanoic acid dihydrochloride on impaired glucose tolerance after diabetes is established, 6 week old db/db mice were treated with the drug (50 mg/kg b.i.d. p.o.) for 14 days. The positive control group was treated with metformin at the same dose. […] The results establish that the drug can be used to treat both pre-diabetes, and diabetes wherein the diabetic phenotype has been established.
To assess whether (S)-2-amino-6-((3-aminopropyl)amino)hexanoic acid dihydrochloride delays progression to diabetes or only masks diabetes during treatment period, (i) db/db mice (ii) db/db vehicle control-treated mice; and (iii) heterozygous littermate control mice were treated with and without (S)-2-amino-6-((3-aminopropyl)amino)hexanoic acid dihydrochloride or metformin (50 mg/kg b.i.d. p.o.) for 14 days. The 14 day treatment period was followed by another 14 day period (“wash out period”) in which no treatment was given.

Series [3] can be described thus: Solubility in water, DMSO and PBS solubility assay. The series is classed as physicochemical. As to the method:
The title compound was determined to be soluble in water or DMSO at a concentration of at least 10 mM.

Series [4] can be described thus: Solution stability in mouse plasma. The series is classed as in vitro ADME, mouse (male C57BL/6). Particulars: male, C57BL/6; 1 μM in mouse plasma, 37° C. As to the method:
The stability of the title compound was tested in the following media, in the following concentrations: (i) 1 μM in mouse (male C57BL/6) plasma, (ii) 1 μM in PBS (with Ca and Mg) (control treatment); (iii) 5 μM in stimulated gastric fluid (SGF; 0.2% NaCl; 84 mM HCl; 0.32% pepsin; pH 1.2); (iv) 5 μM in stimulated intestinal fluid (SIF; 50 mM KP, pH 6.8; 10 mg/ml pancreatin); and (v) 5 μM in PBS (+Ca and Mg) (control treatment). The results are as follows: (i) 1 μM in mouse plasma, t1/2>6 hr at 37° C.; (ii) 1 μM in PBS, t1/2>6 hr at 37° C.; (iii) 5 μM in SGF, t1/2>3 hrs at 37° C.; (iv) 5 μM in SIF, t1/2>3 hrs at 37° C.; and (v) 5 μM in PBS, t1/2>3 hr at 37° C. The “t1/2” values are the maximum time employed for the respective assays.

In the case of `NCCCNCCCC[C@H](N)C(=O)O` [APL, (S)-2-amino-6-((3-aminopropyl)amino)hexanoic acid dihydrochloride], the body weight entry in series [1] (HFD obese mice, two weeks, FIG. 9) is listed as “no effect on body weight”. Moreover, the “toxicity (from body weight)” value in series [1] (mouse, in vivo) was “lack of significant toxicity”. In series [2] (6 week old db/db mice, 50 mg/kg b.i.d. p.o., 14 days, vs metformin at the same dose, FIG. 11), the “impaired glucose tolerance after diabetes is established” value is “better in reducing impaired glucose tolerance than metformin”. In addition, the “impaired glucose tolerance after wash out period” value in series [2] (db/db mice, 50 mg/kg b.i.d. p.o. 14 days, then 14 days no treatment, FIG. 12) is given as “still effective in reducing impaired glucose tolerance even after 14 days following treatment removal”. Moreover, the “impaired glucose tolerance, pre-diabetic stage” value in series [2] (pre-diabetic db/db mice, 50 mg/kg b.i.d. p.o., 7 days, FIG. 10) is on record as “normalizes impaired glucose tolerance”. For the same compound, the solubility in series [3] (DMSO, organic solvent or mixture, read-out: solubility in DMSO) was no less than 10 mM; in series [3] (phosphate buffered saline (PBS) without Ca or Mg, aqueous buffer, PBS pH 7.4 without Ca or Mg, 200 μM = maximum concentration tested, read-out: solubility in PBS) it was greater than 0.2 mM; in series [3] (water, read-out: solubility in water) it was no less than 10 mM. In series [4], the half-life at 1 μM is greater than 6 h.
